US20170334899A1, “AMINO-SUBSTITUTED ISOTHIAZOLES” (Bayer Pharma Aktiengesellschaft, priority 2014, published 2017)

system: HeLa; assay: Proliferation assay (crystal violet), HeLa; format: cell-based; conditions: Homo sapiens, HeLa, 96 h, HeLa cells; 4 days incubation; crystal violet staining; read-out: IC50 inhibition of proliferation, HeLa
Summary of the method: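 Seed 1000–5000 cells/well, 10% FCS; 24 h later replace medium and add compound (0.001–10 μM, 0.5% DMSO); incubate 4 d; glutaraldehyde fix, 0.1% crystal violet pH 3.0, elute with 10% acetic acid; A595; 4-parameter IC50.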

SMILES | IC50
Cc1nsc(Nc2cncc(C(F)(F)F)n2)c1C(=O)Nc1ccc(OC2CCN(C(C)C)CC2)nc1 [Example 218, N-{6-[(1-isopropylpiperidin-4-yl)oxy]pyridin-3-yl}-3-methyl-5-{[6-(trifluoromethyl)pyrazin-2-yl]amino}-1,2-thiazole-4-carboxamide] | 9.9 µM
CNS(=O)(=O)c1ccc(NC(=O)c2c(C)nsc2Nc2cncc(C(F)(F)F)n2)cc1 [Example 211, 3-methyl-N-[4-(methylsulfamoyl)phenyl]-5-{[6-(trifluoromethyl)pyrazin-2-yl]amino}-1,2-thiazole-4-carboxamide] | 9.9 µM
Cc1nsc(Nc2cnc3ccccc3n2)c1C(=O)Nc1ccc(OC2CCN(C(=O)OC(C)(C)C)CC2)nc1 [Example 18, tert-Butyl 4-{[5-({[3-methyl-5-(quinoxalin-2-ylamino)-1,2-thiazol-4-yl]carbonyl}-amino)pyridin-2-yl]oxy}piperidine-1-carboxylate] | 1.2 µM
Cc1nsc(Nc2cncc(C(F)(F)F)n2)c1C(=O)Nc1ccc(OCC2CCN(C(=O)OC(C)(C)C)CC2)nc1 [Example 226, tert-butyl 4-{[(5-{[(3-methyl-5-{[6-(trifluoromethyl)pyrazin-2-yl]amino}-1,2-thiazol-4-yl)carbonyl]amino}pyridin-2-yl)oxy]methyl}piperidine-1-carboxylate] | 0.91 µM
Cc1nsc(Nc2cc(C#N)ccn2)c1C(=O)Nc1cccc(NC(=O)C(C)(C)C)c1 [Example 183, 5-[(4-cyanopyridin-2-yl)amino]-N-{3-[(2,2-dimethylpropanoyl)amino]phenyl}-3-methyl-1,2-thiazole-4-carboxamide] | 5 µM
Cc1cc(C)n(-c2ccccc2NC(=O)c2c(C)nsc2Nc2cnc3ccccc3n2)n1 [Example 243, N-[2-(3,5-dimethyl-1H-pyrazol-1-yl)phenyl]-3-methyl-5-(quinoxalin-2-ylamino)-1,2-thiazole-4-carboxamide] | > 10 µM
CC(=O)Nc1cc(NC(=O)c2c(C)nsc2Nc2cnccn2)ccc1F [Example 205, N-(3-acetamido-4-fluorophenyl)-3-methyl-5-(pyrazin-2-ylamino)-1,2-thiazole-4-carboxamide] | > 10 µM
Cc1nsc(Nc2cncc(C(F)(F)F)n2)c1C(=O)Nc1ccc(OC2CCN(CC(F)F)CC2)c(F)c1 [Example 224, N-(4-{[1-(2,2-difluoroethyl)piperidin-4-yl]oxy}-3-fluorophenyl)-3-methyl-5-{[6-(trifluoromethyl)pyrazin-2-yl]amino}-1,2-thiazole-4-carboxamide] | 0.32 µM
CC(=O)Nc1cc(NC(=O)c2c(C)nsc2Nc2cnc(C(F)(F)F)cn2)ccc1F [Example 206, N-(3-acetamido-4-fluorophenyl)-3-methyl-5-{[5-(trifluoromethyl)pyrazin-2-yl]amino}-1,2-thiazole-4-carboxamide] | 5.1 µM
Cc1nsc(Nc2cncc(C(F)(F)F)n2)c1C(=O)Nc1ccc(OCCN)nc1 [Example 196, N-[6-(2-aminoethoxy)pyridin-3-yl]-3-methyl-5-{[6-(trifluoromethyl)pyrazin-2-yl]amino}-1,2-thiazole-4-carboxamide] | > 10 µM
Cc1nsc(Nc2cncc(C(F)(F)F)n2)c1C(=O)Nc1ccc(C(=O)NC2CCN(CC(F)F)CC2)cc1 [Example 225, N-N-(4-{[1-(2,2-difluoroethyl)piperidin-4-yl]carbamoyl}phenyl)-3-methyl-5-{[6-(trifluoromethyl)pyrazin-2-yl]amino}-1,2-thiazole-4-carboxamide] | 8.3 µM
Cc1nsc(Nc2cncc(C(F)(F)F)n2)c1C(=O)Nc1cccc(S(C)(=O)=O)c1 [Example 194, 3-methyl-N-[3-(methylsulfonyl)phenyl]-5-{[6-(trifluoromethyl)pyrazin-2-yl]amino}-1,2-thiazole-4-carboxamide] | 2.5 µM
Cc1nsc(Nc2cnc3ccccc3n2)c1C(=O)Nc1ccc(C(=O)O)cc1 [Example 187, 4-({[3-methyl-5-(quinoxalin-2-ylamino)-1,2-thiazol-4-yl]carbonyl}amino)benzoic acid] | > 10 µM
Cc1nsc(Nc2cc(C#N)ccn2)c1C(=O)Nc1ccc(NC2CCCNC2)nc1 (centres unmarked) [Example 242, 5-[(4-cyanopyridin-2-yl)amino]-3-methyl-N-[6-(piperidin-3-ylamino)pyridin-3-yl]-1,2-thiazole-4-carboxamide] | > 10 µM
Cc1nsc(Nc2ccc(C#N)cn2)c1C(=O)Nc1ccc(S(C)(=O)=O)cc1 [Example 246, 5-[(5-cyanopyridin-2-yl)amino]-3-methyl-N-[4-(methylsulfonyl)phenyl]-1,2-thiazole-4-carboxamide] | 7.3 µM
Cc1nsc(Nc2cncc(C(F)(F)F)n2)c1C(=O)Nc1ccc(OCCNC(=O)OC(C)(C)C)nc1 [Example 191, tert-butyl {2-[(5-{[(3-methyl-5-{[6-(trifluoromethyl)pyrazin-2-yl]amino}-1,2-thiazol-4-yl)carbonyl]amino}pyridin-2-yl)oxy]ethyl}carbamate] | 1.6 µM

SMILES | IC50
Cc1nsc(Nc2cc(C#N)ccn2)c1C(=O)Nc1ccc(OCCC(=O)OC(C)(C)C)nc1 [Example 200, tert-butyl 3-({5-[({5-[(4-cyanopyridin-2-yl)amino]-3-methyl-1,2-thiazol-4-yl}carbonyl)amino]pyridin-2-yl}oxy)propanoate] | > 10 µM
Cc1nsc(Nc2cnc3ccccc3n2)c1C(=O)Nc1ccc(NC2CCN(C(=O)OC(C)(C)C)CC2)nc1 [Example 234, tert-butyl 4-{[5-({[3-methyl-5-(quinoxalin-2-ylamino)-1,2-thiazol-4-yl]carbonyl}amino)pyridin-2-yl]amino}piperidine-1-carboxylate] | 9.6 µM
Cc1nsc(Nc2cnc(C(F)(F)F)cn2)c1C(=O)Nc1ccc(C(=O)NCCN2CCCC(F)C2)cc1 (centres unmarked) [Example 213, N-(4-{[2-(3-fluoropiperidin-1-yl)ethyl]carbamoyl}phenyl)-3-methyl-5-{[5-(trifluoromethyl)pyrazin-2-yl]amino}-1,2-thiazole-4-carboxamide] | 2.5 µM
Cc1nsc(Nc2cc(C#N)ccn2)c1C(=O)Nc1ccc(NC(=O)OC(C)(C)C)cc1 [Example 177, tert-butyl {4-[({5-[(4-cyanopyridin-2-yl)amino]-3-methyl-1,2-thiazol-4-yl}carbonyl)amino]phenyl}carbamate] | > 10 µM
Cc1nsc(Nc2cc(C#N)ccn2)c1C(=O)Nc1ccc(C(=O)OC(C)(C)C)cc1 [Example 182, tert-butyl 4-[({5-[(4-cyanopyridin-2-yl)amino]-3-methyl-1,2-thiazol-4-yl}carbonyl)amino]benzoate] | 0.66 µM
Cc1nsc(Nc2cnc3ccccc3n2)c1C(=O)Nc1ccc(F)c(C(N)=O)c1 [Example 202, N-(3-carbamoyl-4-fluorophenyl)-3-methyl-5-(quinoxalin-2-ylamino)-1,2-thiazole-4-carboxamide] | > 10 µM
CCN(CC)CCNC(=O)c1cccc(NC(=O)c2c(C)nsc2Nc2cnccn2)c1 [Example 247, N-(3-{[2-(diethylamino)ethyl]carbamoyl}phenyl)-3-methyl-5-(pyrazin-2-ylamino)-1,2-thiazole-4-carboxamide] | > 10 µM
Cc1nsc(Nc2ccc(C#N)cn2)c1C(=O)Nc1cccc(NC(=O)OC(C)(C)C)c1 [Example 179, tert-butyl {3-[({5-[(5-cyanopyridin-2-yl)amino]-3-methyl-1,2-thiazol-4-yl}carbonyl)amino]phenyl}carbamate] | 3.8 µM
Cc1nsc(Nc2cnc3ccccc3n2)c1C(=O)Nc1ccc(C(=O)OC(C)(C)C)cc1 [Example 181, tert-butyl 4-({[3-methyl-5-(quinoxalin-2-ylamino)-1,2-thiazol-4-yl]carbonyl}amino)benzoate] | 0.98 µM
Cc1nsc(Nc2cnc3ccccc3n2)c1C(=O)Nc1ccc(NCCNC(=O)OC(C)(C)C)nc1 [Example 244, tert-butyl (2-{[5-({[3-methyl-5-(quinoxalin-2-ylamino)-1,2-thiazol-4-yl]carbonyl}amino)pyridin-2-yl]amino}ethyl)carbamate] | 4.2 µM
Cc1nsc(Nc2cnc(C(F)(F)F)cn2)c1C(=O)Nc1ccc(OC2CCN(C(=O)OC(C)(C)C)CC2)c(F)c1 [Example 217, tert-butyl 4-(2-fluoro-4-{[(3-methyl-5-{[5-(trifluoromethyl)pyrazin-2-yl]amino}-1,2-thiazol-4-yl)carbonyl]amino}phenoxy)piperidine-1-carboxylate] | 0.17 µM
CC(=O)N1CCC(Oc2ccc(NC(=O)c3c(C)nsc3Nc3cncc(C(F)(F)F)n3)cn2)CC1 [Example 17, N-{6-[(1-Acetylpiperidin-4-yl)oxy]pyridin-3-yl}-3-methyl-5-{[6-(trifluoromethyl)-pyrazin-2-yl]amino}-1,2-thiazole-4-carboxamide] | 2.4 µM
CCN(CC)CCNC(=O)c1cccc(NC(=O)c2c(C)nsc2Nc2cc(C#N)ccn2)c1 [Example 174, 5-[(4-cyanopyridin-2-yl)amino]-N-(3-{[2-(diethylamino)ethyl]carbamoyl}phenyl)-3-methyl-1,2-thiazole-4-carboxamide] | > 10 µM
Cc1nsc(Nc2cnc(C(F)(F)F)cn2)c1C(=O)Nc1ccc(OCC2CCCN(C(=O)OC(C)(C)C)C2)nc1 (centres unmarked) [Example 228, tert-butyl 3-{[(5-{[(3-methyl-5-{[5-(trifluoromethyl)pyrazin-2-yl]amino}-1,2-thiazol-4-yl)carbonyl]amino}pyridin-2-yl)oxy]methyl}piperidine-1-carboxylate] | 0.27 µM
Cc1nsc(Nc2cnc3ccccc3n2)c1C(=O)Nc1ccc(OC2CCN(CC(F)F)CC2)nc1 [Example 20, N-(6-{[1-(2,2-difluoroethyl)piperidin-4-yl]oxy}pyridin-3-yl)-3-methyl-5-(quinoxalin-2-ylamino)-1,2-thiazole-4-carboxamide] | 1.5 µM
Cc1nsc(Nc2cnc3ccccc3n2)c1C(=O)Nc1ccc(NC(=O)C(C)(C)C)cc1 [Example 185, N-{4-[(2,2-dimethylpropanoyl)amino]phenyl}-3-methyl-5-(quinoxalin-2-ylamino)-1,2-thiazole-4-carboxamide] | > 10 µM
